Assay results from ChEMBL document CHEMBL5236634, “Membrane-Targeting Neolignan-Antimicrobial Peptide Mimic Conjugates to Combat Methicillin-Resistant Staphylococcus aureus (MRSA) Infections” (J Med Chem, 2022).
Active and inactive are the calls of the source. No cut-off for these calls is given here.

Legend:
[1] = Toxicity in BALB/c mouse assessed as effect on hematocrit level at 50 mg/kg, ip administered as single dose and measured after 24 hrs; assay type: organism-based; conditions: in vivo
[2] = Binding affinity to methicillin-resistant Staphylococcus aureus 15 cardiolipin assessed as dissociation constant by ITC method
[3] = Toxicity in BALB/c mouse assessed as effect on hemoglobin level at 50 mg/kg, ip administered as single dose and measured after 24 hrs; assay type: organism-based; conditions: in vivo
Staphylococcus aureus [4] = assay: Upregulation of YidC gene expression in methicillin-resistant Staphylococcus aureus 15 assessed as log2 of fold change in gene expression at 8 ug/ml incubated for 6 hrs by transcriptome analysis; assay type: functional; conditions: dose 8 µg/ml
Staphylococcus aureus [5] = assay: Antibacterial activity against methicillin-resistant Staphylococcus aureus 15 infected in BALB/c mouse sepsis model assessed as normalization of cell morphology in spleen at 10 mg/kg, ip measured after 48 hrs by H & E staining based analysis; assay type: functional, organism-based
Salmonella enterica = assay: Antibacterial activity against Salmonella enterica H9812 assessed as inhibition of bacterial growth incubated for 16 to 20 hrs by CLSI based microdilution method; assay type: functional; conditions: time 16-20 hrs
Staphylococcus aureus [6] = assay: Antibacterial activity against methicillin-resistant Staphylococcus aureus 15 infected in BALB/c mouse sepsis model assessed as improvement in survival rate at 5 to 10 mg/kg, ip administered for 7 days; assay type: functional, organism-based; conditions: dose 5-10 mg/kg, time 7.0 day
L02 = assay: Cytotoxicity against human L02 cells assessed as effect on cell morphology at 2.5 to 80 ug/ml incubated for 24 hrs by Hoechst 33342 and propidium iodide staining based fluorescence microscopic analysis; assay type: toxicity; conditions: l02, 24 h, dose 2.5-80 µg/ml
Micrococcus luteus = assay: Antibacterial activity against Micrococcus luteus assessed as inhibition of bacterial growth incubated for 16 to 20 hrs by CLSI based microdilution method; assay type: functional; conditions: time 16-20 hrs
Staphylococcus aureus [7] = assay: Antibacterial activity against methicillin-resistant Staphylococcus aureus 15 infected in BALB/c mouse sepsis model assessed as reduction in bacterial load in spleen at 10 mg/kg, ip measured after 48 hrs; assay type: functional, organism-based
Staphylococcus aureus [8] = assay: Downregulation of pgaC gene expression in methicillin-resistant Staphylococcus aureus 15 assessed as fold change in gene expression at 8 ug/ml incubated for 6 hrs by transcriptome analysis; assay type: functional; conditions: dose 8 µg/ml
[9] = Toxicity in BALB/c mouse assessed as pathological changes in liver at 50 mg/kg, ip administered as single dose and measured after 24 hrs by H & E staining based analysis; assay type: organism-based; conditions: in vivo
[10] = Toxicity in BALB/c mouse assessed as effect on mean corpuscular volume at 50 mg/kg, ip administered as single dose and measured after 24 hrs; assay type: organism-based; conditions: in vivo
Staphylococcus aureus [11] = assay: Inhibition of biofilm formation in methicillin-resistant Staphylococcus aureus 15 at 64 ug/ml incubated for 24 hrs by crystalline violet staining based analysis; assay type: functional
Enterococcus faecalis = assay: Antibacterial activity against Enterococcus faecalis ATCC 29212 assessed as inhibition of bacterial growth incubated for 16 to 20 hrs by CLSI based microdilution method; assay type: functional; conditions: time 16-20 hrs
Staphylococcus aureus [12] = assay: Inhibition of biofilm formation in Staphylococcus aureus ATCC 29213 assessed as destruction of formed biofilm at 0 to 128 ug/ml incubated for 24 hrs by crystal violet staining based analysis; assay type: functional, organism-based; conditions: dose 0-128 µg/ml
[13] = Binding affinity to methicillin-resistant Staphylococcus aureus 15 phosphatidylglycerol assessed as dissociation constant by ITC method
[14] = Toxicity in BALB/c mouse assessed as pathological changes in spleen at 50 mg/kg, ip administered as single dose and measured after 24 hrs by H & E staining based analysis; assay type: organism-based; conditions: in vivo
Staphylococcus aureus [15] = assay: Antibacterial activity against methicillin-resistant Staphylococcus aureus 15 incubated for 16 to 18 hrs in presence of cardiolipin by checkerboard microdilution assay; assay type: functional, organism-based; conditions: time 16-18 hrs
Staphylococcus aureus [16] = assay: Upregulation of SPI gene expression in methicillin-resistant Staphylococcus aureus 15 assessed as log2 of fold change in gene expression at 8 ug/ml incubated for 6 hrs by transcriptome analysis; assay type: functional; conditions: dose 8 µg/ml
Staphylococcus aureus [17] = assay: Inhibition of biofilm formation in methicillin-resistant Staphylococcus aureus 15 incubated for 24 hrs by crystalline violet staining based analysis; assay type: functional, organism-based; conditions: dose 0.125-64 µg/ml
Cell membrane = assay: Disruption of membrane integrity in methicillin-resistant Staphylococcus aureus 15 at 32 ug/ml by SEM analysis; assay type: subcellular; conditions: dose 32.0 µg/ml
Staphylococcus aureus [18] = assay: Upregulation of rplJ gene expression in methicillin-resistant Staphylococcus aureus 15 assessed as log2 of fold change in gene expression at 8 ug/ml incubated for 6 hrs by transcriptome analysis; assay type: functional; conditions: dose 8 µg/ml
[19] = Toxicity in BALB/c mouse assessed as effect on platelet count at 50 mg/kg, ip administered as single dose and measured after 24 hrs; assay type: organism-based; conditions: in vivo

In the case of `C=CCc1cccc(Oc2ccc(C(=O)CC)cc2)c1OCCC[N+](C)(C)CC(=O)NCCCCCC.[Br-]`, the Activity [1] is reported as “Non-Toxic”, the Kd [2] is reported as 1330 nM and the Activity [3] is reported as “Non-Toxic”. The log2FC (Staphylococcus aureus [4]) was 1.27, the Activity (Staphylococcus aureus [5]) was “Active” and the MIC (Salmonella enterica) was 32 µg/mL. The Activity (Staphylococcus aureus [6]) was “Active”, the Activity (L02) was “Non-Toxic” and the MIC (Micrococcus luteus) was 1 µg/mL. The Activity (Staphylococcus aureus [7]) was “Active”, the log2FC (Staphylococcus aureus [8]) was -2.8 and the Activity [9] was “Non-Toxic”. For the same compound, the Activity [10] was “Non-Toxic”, the inhibition at 64 µg/mL (Staphylococcus aureus [11]) was 100% and the MIC (Enterococcus faecalis) was 2 µg/mL. The inhibition (Staphylococcus aureus [12]) was “Active”, the Kd [13] was 3430 nM and the Activity [14] was “Non-Toxic”. For the same compound, the Activity (Staphylococcus aureus [15]) was “inactive”, the log2FC (Staphylococcus aureus [16]) was 1.96 and the inhibition (Staphylococcus aureus [17]) was “Dose-Dependent Effect”. For the same compound, the Activity (Cell membrane) was “Active”, the log2FC (Staphylococcus aureus [18]) was 1.8 and the Activity [19] was “Non-Toxic”.
With `C=CCc1cccc(Oc2ccc(C(=O)CC)cc2)c1OCC[N+](C)(C)CC(=O)NCCCCCC.[Br-]` the Activity [1] was “Non-Toxic”, the Activity [3] was “Non-Toxic” and the Activity (Staphylococcus aureus [5]) was “Active”. The MIC (Salmonella enterica) was 64 µg/mL, the Activity (Staphylococcus aureus [6]) was “Active” and the Activity (L02) was “Non-Toxic”. For the same compound, the MIC (Micrococcus luteus) was 4 µg/mL, the Activity (Staphylococcus aureus [7]) was “Active” and the Activity [9] was “Non-Toxic”. For the same compound, the Activity [10] was “Non-Toxic”, the inhibition at 64 µg/mL (Staphylococcus aureus [11]) was 100% and the MIC (Enterococcus faecalis) was 2 µg/mL. The inhibition (Staphylococcus aureus [12]) was “Active”, the Activity [14] was “Non-Toxic” and the Activity (Staphylococcus aureus [15]) was “inactive”. The inhibition (Staphylococcus aureus [17]) was “Dose-Dependent Effect”, the Activity (Cell membrane) was “Active” and the Activity [19] was “Non-Toxic”.
